“And” between values parts separate entries of the source, which are not always exact repeats. Equal values may be shown once.
Biological target: T1, IDO1 (Homo sapiens, UniProt P14902)
T1 construct: Recombinant full-length IDO1 (Seegers, N., et al.) and all other assay components were diluted in IDO1 reaction buffer; made in house
Assay: Biochemical IDO1 assay (NFK GreenScreen)
Settings: for IC50: NFK GreenScreen, 25 nM IDO1, 100 μM L-tryptophan, read-out: IC50, inhibitory potency on IDO1; for relative activity of the separated isomers: stated in the synthesis examples, assay not named
Experimental: Inhibition of IDO1 activity can be measured by determining the enzymatic conversion of L-tryptophan into N-formylkynurenine (NFK) in a reaction mixture containing IDO1 and test compound. The formation of NFK can be detected directly by, for instance, high-performance liquid chromatography (HPLC) methods, or by intrinsic fluorescence.
Compounds were serially diluted in dimethylsulfoxide (DMSO) and finally in IDO1 reaction buffer, consisting of 50 mM NaH2PO4, pH7.0, supplemented with 0.05% Tween-20 (cat. No. P7949; Sigma Aldrich) and 1% glycerol. Recombinant full-length IDO1 (Seegers, N., et al.) and all other assay components were diluted in IDO1 reaction buffer. […] Subsequently, 10 μl of 0.4 mM of the substrate L-tryptophan was added, i.e., the final concentration of L-tryptophan was 100 μM. The DMSO concentration in the assay was 0.3%. […] Incubation was continued for 60 min at room temperature. Then, 10 μl of NFK Green™ (NTRC, Oss, The Netherlands) was added, the plate was sealed, and the reaction was developed for 3 hours at 37° C. To determine the production of N-formyl kynurenine (NFK), the seal was removed and fluorescence was read on an EnVision multimode reader (Perkin Elmer, Waltham, Mass., USA). IC50 were calculated using XLfit™ software (ID Business Solutions, Ltd., Surrey, U.K.).

T1 sequence (P14902 whole entry): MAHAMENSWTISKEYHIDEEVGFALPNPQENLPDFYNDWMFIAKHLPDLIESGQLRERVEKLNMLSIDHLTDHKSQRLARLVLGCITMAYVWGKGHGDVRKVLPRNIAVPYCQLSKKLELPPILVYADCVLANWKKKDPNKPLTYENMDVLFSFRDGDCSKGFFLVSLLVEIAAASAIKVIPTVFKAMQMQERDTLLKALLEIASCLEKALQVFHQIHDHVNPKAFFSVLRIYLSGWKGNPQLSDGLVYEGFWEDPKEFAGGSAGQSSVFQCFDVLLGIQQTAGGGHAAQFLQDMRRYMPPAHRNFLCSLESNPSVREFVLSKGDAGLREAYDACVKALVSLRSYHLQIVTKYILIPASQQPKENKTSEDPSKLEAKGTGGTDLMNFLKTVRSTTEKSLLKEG

IC50	relative activity of the separated isomers	SMILES
≤ 1000 nM	less active isomer	O=C1CN(C(=O)c2c(F)cccc2F)C(c2cc(Br)cs2)N1O (single isomer, unassigned) [Example 48a, 2-(4-Bromo-2-thienyl)-1-(2,6-difluorobenzoyl)-3-hydroxy-imidazolidin-4-one]
≤ 1000 nM	most active isomer	O=C1CN(C(=O)c2c(F)cccc2F)C(c2cc(Br)cs2)N1O (single isomer, unassigned) [Example 48b, 2-(4-Bromo-2-thienyl)-1-(2,6-difluorobenzoyl)-3-hydroxy-imidazolidin-4-one]
≤ 5000 nM and 1000 to 5000 nM	less active isomer	O=C1CN(C(=O)c2c(F)cccc2F)C(c2ccc(Br)s2)N1O (single isomer, unassigned) [Example 49a, 2-(5-Bromo-2-thienyl)-1-(2,6-difluorobenzoyl)-3-hydroxy-imidazolidin-4-one]
≤ 1000 nM	most active isomer	O=C1CN(C(=O)c2c(F)cccc2F)C(c2ccc(Br)s2)N1O (single isomer, unassigned) [Example 49b, 2-(5-Bromo-2-thienyl)-1-(2,6-difluorobenzoyl)-3-hydroxy-imidazolidin-4-one]
	most active isomer	O=C1CN(C(=O)c2c(F)cccc2F)C(c2cc(Br)c(F)s2)N1O (single isomer, unassigned) [Example 110a, 2-(4-Bromo-5-fluoro-2-thienyl)-1-(2,6-difluorobenzoyl)-3-hydroxy-imidazolidin-4-one]
	less active isomer	O=C1CN(C(=O)c2c(F)cccc2F)C(c2cc(Br)c(F)s2)N1O (single isomer, unassigned) [Example 110b, 2-(4-Bromo-5-fluoro-2-thienyl)-1-(2,6-difluorobenzoyl)-3-hydroxy-imidazolidin-4-one]
	less active isomer	C[C@@H](c1ccccc1)N1CC(=O)N(O)C1c1cc(Br)cs1 (single isomer, unassigned) [Example 118a]
≤ 1000 nM	most active isomer	C[C@@H](c1ccccc1)N1CC(=O)N(O)C1c1cc(Br)cs1 (single isomer, unassigned) [Example 118b]
	less active isomer	C[C@@H](c1ccccc1)N1CC(=O)N(O)C1c1cc(I)cs1 (single isomer, unassigned) [Example 119a]
≤ 1000 nM	most active isomer	C[C@@H](c1ccccc1)N1CC(=O)N(O)C1c1cc(I)cs1 (single isomer, unassigned) [Example 119b]
	less active isomer	C[C@@H](c1ccccc1)N1CC(=O)N(O)C1c1ccc(Br)s1 (single isomer, unassigned) [Example 120a]
≤ 1000 nM	most active isomer	C[C@@H](c1ccccc1)N1CC(=O)N(O)C1c1ccc(Br)s1 (single isomer, unassigned) [Example 120b]
	less active isomer	C[C@@H](c1ccccc1)N1CC(=O)N(O)C1c1csc(Br)c1 (single isomer, unassigned) [Example 121a]
≤ 1000 nM	most active isomer	C[C@@H](c1ccccc1)N1CC(=O)N(O)C1c1csc(Br)c1 (single isomer, unassigned) [Example 121b]

The remaining lines, values behind:

SMILES	IC50	relative activity of the separated isomers
O=C1CN(Cc2c(F)cccc2F)C(c2cc(Br)cs2)N1O (single isomer, unassigned) [Example 45a, 2-(4-Bromo-2-thienyl)-1-[(2,6-difluorophenyl)methyl]-3-hydroxy-imidazolidin-4-one]	≤ 5000 nM and 1000 to 5000 nM	less active isomer
O=C1CN(Cc2c(F)cccc2F)C(c2cc(Br)cs2)N1O (single isomer, unassigned) [Example 45b, 2-(4-Bromo-2-thienyl)-1-[(2,6-difluorophenyl)methyl]-3-hydroxy-imidazolidin-4-one]	≤ 1000 nM	most active isomer
O=C1CN(C(=O)c2c(F)cccc2F)C(c2csc(Br)c2)N1O (single isomer, unassigned) [Example 46a, 2-(5-Bromo-3-thienyl)-1-(2,6-difluorobenzoyl)-3-hydroxy-imidazolidin-4-one]	≤ 5000 nM and 1000 to 5000 nM	less active isomer
O=C1CN(C(=O)c2c(F)cccc2F)C(c2csc(Br)c2)N1O (single isomer, unassigned) [Example 46b, 2-(5-Bromo-3-thienyl)-1-(2,6-difluorobenzoyl)-3-hydroxy-imidazolidin-4-one]	≤ 1000 nM	most active isomer
O=C1CN(C(=O)c2c(F)cc(C#CC3CC3)cc2F)C(c2cc(Br)cs2)N1O (single isomer, unassigned) [Example 47a, 2-(4-Bromo-2-thienyl)-1-[4-(2-cyclopropylethynyl)-2,6-difluoro-benzoyl]-3-hydroxy-imidazolidin-4-one]	≤ 1000 nM	less active isomer
O=C1CN(C(=O)c2c(F)cc(C#CC3CC3)cc2F)C(c2cc(Br)cs2)N1O (single isomer, unassigned) [Example 47b, 2-(4-Bromo-2-thienyl)-1-[4-(2-cyclopropylethynyl)-2,6-difluoro-benzoyl]-3-hydroxy-imidazolidin-4-one]	≤ 1000 nM	most active isomer
C#Cc1csc(C2N(O)C(=O)CN2C(=O)c2c(F)cccc2F)c1 (centres unmarked) [Example 1, 1-(2,6-Difluorobenzoyl)-2-(4-ethynyl-2-thienyl)-3-hydroxy-imidazolidin-4-one]	≤ 1000 nM	
O=C1CN(C(=O)c2ccccc2F)C(c2ccc(Br)s2)N1O (centres unmarked) [Example 2, 2-(5-Bromo-2-thienyl)-1-(2-fluorobenzoyl)-3-hydroxy-imidazolidin-4-one]	≤ 1000 nM	
O=C1CN(C(=O)c2c(F)cccc2Cl)C(c2ccc(Br)s2)N1O (centres unmarked) [Example 3, 2-(5-Bromo-2-thienyl)-1-(2-chloro-6-fluoro-benzoyl)-3-hydroxy-imidazolidin-4-one]	≤ 5000 nM and 1000 to 5000 nM	
O=C1CN(C(=O)c2c(F)cccc2F)C(c2ccc(Br)s2)N1O (centres unmarked) [Example 4, 2-(5-Bromo-2-thienyl)-1-(2,6-difluorobenzoyl)-3-hydroxy-imidazolidin-4-one]	≤ 1000 nM	
O=C1CN(C(=O)c2c(F)cccc2Cl)C(c2cc(Br)cs2)N1O (centres unmarked) [Example 7, 2-(4-Bromo-2-thienyl)-1-(2-chloro-6-fluoro-benzoyl)-3-hydroxy-imidazolidin-4-one]	≤ 1000 nM	
O=C1CN(C(=O)c2c(F)cccc2F)C(c2cc(Br)cs2)N1O (centres unmarked) [Example 8, 2-(4-Bromo-2-thienyl)-1-(2,6-difluorobenzoyl)-3-hydroxy-imidazolidin-4-one]	≤ 1000 nM	
O=C1CN(C(=O)c2ccccc2F)C(c2cc(Br)cs2)N1O (centres unmarked) [Example 9, 2-(4-Bromo-2-thienyl)-1-(2-fluorobenzoyl)-3-hydroxy-imidazolidin-4-one]	≤ 1000 nM	
O=C1CN(C(=O)c2c(Cl)cccc2Cl)C(c2cc(Br)cs2)N1O (centres unmarked) [Example 10, 2-(4-Bromo-2-thienyl)-1-(2,6-dichlorobenzoyl)-3-hydroxy-imidazolidin-4-one]	≤ 5000 nM and 1000 to 5000 nM	
O=C1CN(C(=O)c2c(F)cccc2C(F)(F)F)C(c2cc(Br)cs2)N1O (centres unmarked) [Example 11, 2-(4-Bromo-2-thienyl)-1-[2-fluoro-6-(trifluoromethyl)benzoyl]-3-hydroxy-imidazolidin-4-one]	≤ 5000 nM and 1000 to 5000 nM	
O=C1CN(C(=O)c2ccccc2)C(c2cc(Br)cs2)N1O (centres unmarked) [Example 12, 1-Benzoyl-2-(4-bromo-2-thienyl)-3-hydroxy-imidazolidin-4-one]	≤ 5000 nM and 1000 to 5000 nM	
CSc1ccc(C2N(O)C(=O)CN2C(=O)c2ccccc2F)s1 (centres unmarked) [Example 13, 1-(2-Fluorobenzoyl)-3-hydroxy-2-(5-methylsulfanyl-2-thienyl)imidazolidin-4-one]	≤ 5000 nM and 1000 to 5000 nM	
CSc1ccc(C2N(O)C(=O)CN2C(=O)c2c(F)cccc2F)s1 (centres unmarked) [Example 14, 1-(2,6-Difluorobenzoyl)-3-hydroxy-2-(5-methylsulfanyl-2-thienyl)imidazolidin-4-one]	≤ 5000 nM and 1000 to 5000 nM	
O=C1CN(C(=O)c2c(F)cccc2F)C(c2ccc([N+](=O)[O-])s2)N1O (centres unmarked) [Example 16, 1-(2,6-Difluorobenzoyl)-3-hydroxy-2-(5-nitro-2-thienyl)imidazolidin-4-one]	≤ 5000 nM and 1000 to 5000 nM	
CCc1ccc(C2N(O)C(=O)CN2C(=O)c2c(F)cccc2F)s1 (centres unmarked) [Example 18, 1-(2,6-Difluorobenzoyl)-2-(5-ethyl-2-thienyl)-3-hydroxy-imidazolidin-4-one]	≤ 5000 nM and 1000 to 5000 nM	
O=C1CN(C(=O)c2c(F)cccc2F)C(c2csc([N+](=O)[O-])c2)N1O (centres unmarked) [Example 20, 1-(2,6-Difluorobenzoyl)-3-hydroxy-2-(5-nitro-3-thienyl)imidazolidin-4-one]	≤ 1000 nM	
O=C1CN(C(=O)c2c(F)cccc2F)C(c2cc([N+](=O)[O-])cs2)N1O (centres unmarked) [Example 21, 1-(2,6-Difluorobenzoyl)-3-hydroxy-2-(4-nitro-2-thienyl)imidazolidin-4-one]	≤ 1000 nM	
